pIC50: −log10 of the molar value. Where “and” joins values, the source holds several entries; their conditions need not be identical. Equal values may be shown once.

Acetylcholinesterase, sequence (P22303 whole entry): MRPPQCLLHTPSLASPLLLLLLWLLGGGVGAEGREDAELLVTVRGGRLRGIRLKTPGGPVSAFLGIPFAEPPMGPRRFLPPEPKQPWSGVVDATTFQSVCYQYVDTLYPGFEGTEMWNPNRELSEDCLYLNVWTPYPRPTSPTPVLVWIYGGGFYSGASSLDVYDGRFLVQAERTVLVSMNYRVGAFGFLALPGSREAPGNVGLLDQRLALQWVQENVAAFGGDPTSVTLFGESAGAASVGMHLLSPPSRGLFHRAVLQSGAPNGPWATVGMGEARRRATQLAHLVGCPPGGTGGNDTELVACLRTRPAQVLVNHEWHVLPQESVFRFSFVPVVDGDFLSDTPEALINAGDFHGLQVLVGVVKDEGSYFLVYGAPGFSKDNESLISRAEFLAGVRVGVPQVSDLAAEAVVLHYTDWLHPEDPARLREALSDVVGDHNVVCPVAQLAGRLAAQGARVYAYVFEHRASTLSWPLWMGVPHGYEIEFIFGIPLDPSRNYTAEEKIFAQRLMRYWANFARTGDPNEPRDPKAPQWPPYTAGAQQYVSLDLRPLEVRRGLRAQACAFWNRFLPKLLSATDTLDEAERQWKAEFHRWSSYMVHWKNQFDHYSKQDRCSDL

The assay has as its target Acetylcholinesterase (Homo sapiens, UniProt P22303).
Description: Inhibitory concentration against acetylcholinesterase
`C=CCC1(OC)OCc2c(OC)c(OC)cc3ccnc1c23` (stereo not drawn): the pIC50 was 4.00.
Take `COc1cc2ccnc3c2c(c1OC)COC3(CCCO)OC` (stereo not drawn): the negative-log IC50 (pIC50) was 3.86.
For `C=CCC1(O)OCc2c(OC)c(OC)cc3ccnc1c23` (stereo not drawn) the value was 3.76; for `COc1cc2ccnc3c2c(c1OC)COC3(O)CC(O)CO` (stereo not drawn), 3.96.
For `COc1cc2cc[n+](C)c3c2c(c1OC)C(Br)OC3=O` (stereo not drawn) the value was 3.98 and 3.92.
For `COc1cc2ccnc3c2c(c1OC)COC3(CC(O)CO)OC` (stereo not drawn) the value was 4.02.
`COc1cc2ccnc3c2c(c1OC)COC3=O` showed a negative logarithm of the IC50 (pIC50) of 4.71.
Regarding `COc1cc2ccnc3c2c(c1OC)C(Br)OC3=O` (stereo not drawn), the pIC50 was 4.34 and 4.33.

For the origin of these results see ChEMBL document CHEMBL1145264, “Synthesis of tricyclic analogs of stephaoxocanidine and their evaluation as acetylcholinesterase inhibitors” (Bioorg Med Chem Lett, 2005).
